Measurements as given in patent publication US11649255B2, “Indazoles as hematopoietic progenitor kinase 1 (HPK1) inhibitors and methods using same” (1st Biotherapeutics, Inc., priority 2020, dated 2023).

Target: recombinant human HPK1 (Homo sapiens (Human), UniProt Q92918)
Test: HPK1 kinase assay (ADP-Glo)
Type: biochemical
Conditions: 25 μM ATP, MBP substrate
How it was run: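 Activity was read as ADP formed, detected by ADP-Glo luminescence after the reaction of 5 ng recombinant human HPK1 with MBP and ATP (stocks 0.5 μg/μl and 25 μM) for 40 min at 30 °C. Buffer was Tris pH 7.5 with MgCl2, BSA and DTT, with compound in 0.5% DMSO. IC50 came from inhibition curves.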

recombinant human HPK1, sequence (Q92918 whole entry): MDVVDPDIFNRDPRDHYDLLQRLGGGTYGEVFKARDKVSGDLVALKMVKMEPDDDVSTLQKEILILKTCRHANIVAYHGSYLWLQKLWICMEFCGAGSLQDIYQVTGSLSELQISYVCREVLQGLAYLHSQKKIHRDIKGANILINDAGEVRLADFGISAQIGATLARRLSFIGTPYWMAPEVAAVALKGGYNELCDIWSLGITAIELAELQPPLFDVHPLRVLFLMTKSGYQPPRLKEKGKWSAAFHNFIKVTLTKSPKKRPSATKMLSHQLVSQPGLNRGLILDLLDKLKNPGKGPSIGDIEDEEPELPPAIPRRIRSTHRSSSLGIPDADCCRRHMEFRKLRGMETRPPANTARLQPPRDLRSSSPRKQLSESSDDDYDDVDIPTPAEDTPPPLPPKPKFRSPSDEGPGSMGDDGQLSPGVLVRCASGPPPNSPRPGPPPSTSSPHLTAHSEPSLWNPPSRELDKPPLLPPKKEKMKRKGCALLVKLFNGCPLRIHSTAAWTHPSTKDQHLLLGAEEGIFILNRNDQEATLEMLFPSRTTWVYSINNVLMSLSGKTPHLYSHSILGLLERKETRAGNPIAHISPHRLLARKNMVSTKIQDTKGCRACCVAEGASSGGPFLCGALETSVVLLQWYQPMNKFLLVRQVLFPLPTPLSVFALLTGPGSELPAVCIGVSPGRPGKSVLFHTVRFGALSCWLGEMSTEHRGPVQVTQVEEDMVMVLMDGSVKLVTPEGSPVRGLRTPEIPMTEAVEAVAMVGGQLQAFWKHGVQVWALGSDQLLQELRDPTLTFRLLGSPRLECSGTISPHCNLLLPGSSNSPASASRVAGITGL

SMILES | IC50 [nM]
COC(=O)c1c(F)c(Cl)c(-c2ccn3nc(NC(=O)[C@@H]4C[C@@H]4F)cc3c2)c2cn[nH]c12 [Example 554, methyl 5-chloro-6-fluoro-4-(2-((1S,2S)-2-fluorocyclopropane-1-carboxamido)pyrazolo[1,5-a]pyridin-5-yl)-1H-indazole-7-carboxylate] | < 100
CN(c1c(F)c(Cl)c(-c2ccn3nc(NC(=O)[C@@H]4C[C@@H]4F)cc3c2)c2cn[nH]c12)C1CCC(O)C1 (stereo partly drawn) [Example 555, (1S,2S)-N-(5-(5-chloro-6-fluoro-7-((3-hydroxycyclopentyl)(methyl)amino)-1H-indazol-4-yl)pyrazolo[1,5-a]pyridin-2-yl)-2-fluorocyclopropane-1-carboxamide] | < 100
O=C(Nc1cc2cc(-c3c(Cl)c(F)c(NC4CCC(O)C4)c4[nH]ncc34)ccn2n1)[C@@H]1C[C@@H]1F (stereo partly drawn) [Example 559, (1S,2S)-N-(5-(5-chloro-6-fluoro-7-((3-hydroxycyclopentyl)amino)-1H-indazol-4-yl)pyrazolo[1,5-a]pyridin-2-yl)-2-fluorocyclopropane-1-carboxamide] | < 100
CNC(=O)c1c(F)c(Cl)c(-c2ccn3nc(NC(=O)[C@@H]4C[C@@H]4F)cc3c2)c2cn[nH]c12 [Example 560, 5-chloro-6-fluoro-4-(2-((1S,2S)-2-fluorocyclopropane-1-carboxamido)pyrazolo[1,5-a]pyridin-5-yl)-N-methyl-1H-indazole-7-carboxamide] | < 100
CC(=O)c1c(F)c(C)c(-c2ccn3nc(NC(=O)[C@@H]4C[C@@H]4F)cc3c2)c2cn[nH]c12 [Example 566, (1S,2S)-N-(5-(7-acetyl-6-fluoro-5-methyl-1H-indazol-4-yl)pyrazolo[1,5-a]pyridin-2-yl)-2-fluorocyclopropane-1-carboxamide] | 101 to 500
CSc1c(F)cc2[nH]ncc2c1-c1ccn2nc(NC(=O)[C@H]3C[C@@H]3F)cc2c1 [Example 571, (1R,2S)-2-fluoro-N-(5-(6-fluoro-5-(methylthio)-1H-indazol-4-yl)pyrazolo[1,5-a]pyridin-2-yl)cyclopropane-1-carboxamide] | < 100
CSc1c(F)cc2[nH]ncc2c1-c1ccn2nc(NC(=O)[C@@H]3C[C@H]3F)cc2c1 [Example 572, (1S,2R)-2-fluoro-N-(5-(6-fluoro-5-(methylthio)-1H-indazol-4-yl)pyrazolo[1,5-a]pyridin-2-yl)cyclopropane-1-carboxamide] | < 100
CSc1c(F)cc2[nH]ncc2c1-c1ccn2nc(NC(=O)[C@H]3C[C@H]3F)cc2c1 [Example 573, (1R,2R)-2-fluoro-N-(5-(6-fluoro-5-(methylthio)-1H-indazol-4-yl)pyrazolo[1,5-a]pyridin-2-yl)cyclopropane-1-carboxamide] | < 100
CC(=O)c1c(F)c(Cl)c(-c2ccn3nc(NC(=O)[C@@H]4C[C@@H]4F)cc3c2)c2cn[nH]c12 [Example 575, (1S,2S)-N-(5-(7-acetyl-5-chloro-6-fluoro-1H-indazol-4-yl)pyrazolo[1,5-a]pyridin-2-yl)-2-fluorocyclopropane-1-carboxamide] | < 100
NC(=O)c1c(F)c(Cl)c(-c2ccn3nc(NC(=O)[C@@H]4C[C@@H]4F)cc3c2)c2cn[nH]c12 [Example 576, 5-chloro-6-fluoro-4-(2-((1S,2S)-2-fluorocyclopropane-1-carboxamido)pyrazolo[1,5-a]pyridin-5-yl)-1H-indazole-7-carboxamide] | > 1000
CCOc1c(F)cc2[nH]ncc2c1-c1ccn2nc(NC(=O)[C@@H]3C[C@@H]3F)cc2c1 [Example 578, (1S,2S)-N-(5-(5-ethoxy-6-fluoro-1H-indazol-4-yl)pyrazolo[1,5-a]pyridin-2-yl)-2-fluorocyclopropane-1-carboxamide] | < 100
CNC(=O)OCCN(C)c1c(F)c(C)c(-c2ccn3nc(NC(=O)[C@@H]4C[C@@H]4F)cc3c2)c2cn[nH]c12 [Example 580, 2-((6-fluoro-4-(2-((1S,2S)-2-fluorocyclopropane-1-carboxamido)pyrazolo[1,5-a]pyridin-5-yl)-5-methyl-1H-indazol-7-yl)(methyl)amino)ethyl methylcarbamate] | < 100
O=C(Nc1cc2cc(-c3c(Cl)c(F)c(C(F)F)c4[nH]ncc34)ccn2n1)[C@@H]1C[C@@H]1F [Example 581, (1S,2S)-N-(5-(5-chloro-7-(difluoromethyl)-6-fluoro-1H-indazol-4-yl)pyrazolo[1,5-a]pyridin-2-yl)-2-fluorocyclopropane-1-carboxamide] | < 100
Cc1c(F)c(C#N)c2[nH]ncc2c1-c1ccn2nc(NC(=O)[C@@H]3C[C@@H]3F)cc2c1 [Example 582, (1S,2S)-N-(5-(7-cyano-6-fluoro-5-methyl-1H-indazol-4-yl)pyrazolo[1,5-a]pyridin-2-yl)-2-fluorocyclopropane-1-carboxamide] | < 100
CN(C)c1c(F)cc(-c2ccn3nc(NC(=O)[C@@H]4C[C@@H]4F)cc3c2)c2cn[nH]c12 [Example 583, (1S,2S)-N-(5-(7-(dimethylamino)-6-fluoro-1H-indazol-4-yl)pyrazolo[1,5-a]pyridin-2-yl)-2-fluorocyclopropane-1-carboxamide] | < 100
CNC(=O)c1c(F)c(C)c(-c2ccn3nc(NC(=O)[C@@H]4C[C@@H]4F)cc3c2)c2cn[nH]c12 [Example 584, 6-fluoro-4-(2-((1S,2S)-2-fluorocyclopropane-1-carboxamido)pyrazolo[1,5-a]pyridin-5-yl)-N,5-dimethyl-1H-indazole-7-carboxamide] | 101 to 500
CCc1c(F)c(C(F)(F)F)c2[nH]ncc2c1-c1ccn2nc(NC(=O)[C@@H]3C[C@@H]3F)cc2c1 [Example 585, (1S,2S)-N-(5-(5-ethyl-6-fluoro-7-(trifluoromethyl)-1H-indazol-4-yl)pyrazolo[1,5-a]pyridin-2-yl)-2-fluorocyclopropane-1-carboxamide] | < 100
N#Cc1c(F)c(Cl)c(-c2ccn3nc(NC(=O)[C@@H]4C[C@@H]4F)cc3c2)c2cn[nH]c12 [Example 586, (1S,2S)-N-(5-(5-chloro-7-cyano-6-fluoro-1H-indazol-4-yl)pyrazolo[1,5-a]pyridin-2-yl)-2-fluorocyclopropane-1-carboxamide] | < 100
O=C(Nc1cc2cc(-c3cc(F)c(OC(F)(F)F)c4[nH]ncc34)ccn2n1)[C@@H]1C[C@@H]1F [Example 587, (1S,2S)-2-fluoro-N-(5-(6-fluoro-7-(trifluoromethoxy)-1H-indazol-4-yl)pyrazolo[1,5-a]pyridin-2-yl)cyclopropane-1-carboxamide] | < 100
CSc1c(F)cc(-c2ccn3nc(NC(=O)[C@@H]4C[C@@H]4F)cc3c2)c2cn[nH]c12 [Example 589, (1S,2S)-2-fluoro-N-(5-(6-fluoro-7-(methylthio)-1H-indazol-4-yl)pyrazolo[1,5-a]pyridin-2-yl)cyclopropane-1-carboxamide] | < 100
Cc1c(F)c(C(F)F)c2[nH]ncc2c1-c1ccn2nc(NC(=O)[C@@H]3C[C@@H]3F)cc2c1 [Example 591, (1S,2S)-N-(5-(7-(difluoromethyl)-6-fluoro-5-methyl-1H-indazol-4-yl)pyrazolo[1,5-a]pyridin-2-yl)-2-fluorocyclopropane-1-carboxamide] | < 100
Cc1c(F)c(OC(F)(F)F)c2[nH]ncc2c1-c1ccn2nc(NC(=O)[C@@H]3C[C@@H]3F)cc2c1 [Example 592, (1S,2S)-2-fluoro-N-(5-(6-fluoro-5-methyl-7-(trifluoromethoxy)-1H-indazol-4-yl)pyrazolo[1,5-a]pyridin-2-yl)cyclopropane-1-carboxamide] | < 100
CSc1ccc(-c2ccn3nc(NC(=O)[C@@H]4C[C@@H]4F)cc3c2)c2cn[nH]c12 [Example 593, (1S,2S)-2-fluoro-N-(5-(7-(methylthio)-1H-indazol-4-yl)pyrazolo[1,5-a]pyridin-2-yl)cyclopropane-1-carboxamide] | < 100
Cn1nnnc1-c1c(F)c(Cl)c(-c2ccn3nc(NC(=O)[C@@H]4C[C@@H]4F)cc3c2)c2cn[nH]c12 [Example 594, (1S,2S)-N-(5-(5-chloro-6-fluoro-7-(1-methyl-1H-tetrazol-5-yl)-1H-indazol-4-yl)pyrazolo[1,5-a]pyridin-2-yl)-2-fluorocyclopropane-1-carboxamide] | < 100
CN(C)c1ccc(-c2ccn3nc(NC(=O)[C@@H]4C[C@@H]4F)cc3c2)c2cn[nH]c12 [Example 595, (1S,2S)-N-(5-(7-(dimethylamino)-1H-indazol-4-yl)pyrazolo[1,5-a]pyridin-2-yl)-2-fluorocyclopropane-1-carboxamide] | 101 to 500
CN(c1ncccn1)c1c(F)c(Cl)c(-c2ccn3nc(NC(=O)[C@@H]4C[C@@H]4F)cc3c2)c2cn[nH]c12 [Example 596, (1S,2S)-N-(5-(5-chloro-6-fluoro-7-(methyl(pyrimidin-2-yl)amino)-1H-indazol-4-yl)pyrazolo[1,5-a]pyridin-2-yl)-2-fluorocyclopropane-1-carboxamide] | < 100
CSc1c(F)c(F)c2[nH]ncc2c1-c1ccn2nc(NC(=O)[C@H]3C[C@H]3F)cc2c1 [Example 598, (1R,2R)-N-(5-(6,7-difluoro-5-(methylthio)-1H-indazol-4-yl)pyrazolo[1,5-a]pyridin-2-yl)-2-fluorocyclopropane-1-carboxamide] | < 100
CSc1c(F)c(F)c2[nH]ncc2c1-c1ccn2nc(NC(=O)[C@@H]3C[C@H]3F)cc2c1 [Example 599, (1S,2R)-N-(5-(6,7-difluoro-5-(methylthio)-1H-indazol-4-yl)pyrazolo[1,5-a]pyridin-2-yl)-2-fluorocyclopropane-1-carboxamide] | < 100
CSc1c(F)c(F)c2[nH]ncc2c1-c1ccn2nc(NC(=O)[C@H]3C[C@@H]3F)cc2c1 [Example 600, (1R,2S)-N-(5-(6,7-difluoro-5-(methylthio)-1H-indazol-4-yl)pyrazolo[1,5-a]pyridin-2-yl)-2-fluorocyclopropane-1-carboxamide] | < 100
